From patent publication US20210188843A1, “QUINOLINE COMPOUNDS AND THEIR PREPARATION AND USE AS ANTIMALARIAL AGENTS” (The United States of America,as represented by the …, priority 2018, published 2021) come the findings set out here.

Data set [1] deals with Asexual parasites of P. falciparum strain 3D7. Put plainly: In vitro drug activity on asexual parasites (SYBR Green assay). The data set is classed as cell-based. The settings on record: Plasmodium falciparum; Table 1; P. falciparum 3D7 asexual stage, 72 h; read-out: Asexual EC50. Here is the method: Cell culture. Asexual parasites of P. falciparum strain 3D7 were cultured as described previously [Trager W, et al., Journal of Parasitology 2005, 91: 484-486]. Stage III-V gametocytes were selected and enriched with 3-day treatment with 50 mM N-acetylglucosamine (NAG) and the following Percoll density gradient centrifugation after gametocyte production [Tanaka T Q, et al., Molecular and Biochemical Parasitology, 2011, 177: 160-163]. Gametocytes of HB3 and Dd2 strains were produced and then set up for assay in a similar process. HepG2 cells (ATCC, cat. no. 77400) were cultured in 175-cm^2 tissue culture flasks with 30 ml growth medium at 37° C. in a 5% CO2 humidified atmosphere. Growth medium was made with Dulbecco's Modified Eagle Medium with 10% fetal bovine serum (FBS). Growth medium was replaced every other day and cells were passed at 75% confluence.
Asexual parasites of P. falciparum strain 3D7 were cultured as described previously (Trager, W. et al., J. Parasitol. 2005, 91(3): 484-486). Drug activity on asexual stage parasites was tested using a SYBR Green assay as described previously (Eastman, R. T. et al., Antimicrob. Agents Chemother. 2013, 57(1): 425-435; Smilkstein, M. et al., Antimicrob. Agents Chemother. 2004, 48(5): 1803-1806). Briefly, parasites were diluted to 0.5% parasitemia in complete culture medium with 2% hematocrit and drugs diluted in DMSO (<0.5%) and were loaded into a 96-well plate (200 μl/well). No drug and RBC alone wells were included as positive and background controls, respectively, and each testing condition was examined in duplicated. After 72 h incubation under the standard culture condition and a freeze-thaw lysis step at −80° C. and room temperature, 100 μl/well of lysis buffer containing SYBR Green I was added to the parasite culture and incubated for 30 min at room temperature. The fluorescence of each well was measured at 520 nm following excitation at 490 nm using a FLUOstar Optima™ microplate reader (BMG Labtech).
Compounds were screened against gametocytes and asexual parasites as described in Examples 1 and 2.

Data set [2] is described as follows: Microsomal stability (rat). In kind it is in vitro ADME. The settings on record: rat microsomes, Table 1, read-out: Microsomal Stability (rat) T1/2.
Another data set in a line: Solubility pH 7.4. In kind it is physicochemical. Conditions: aqueous buffer, Table 1.

The structures appear in SMILES notation. Converted amounts (≈) assume the structure as drawn. Some results are limits rather than exact numbers.

In general, EC50 refers to the concentration giving half of the maximal effect. As usually defined, the solubility is the concentration that dissolves in the medium under given conditions. Read a high solubility as a readily soluble substance. Turning to `Cc1ccc(C#N)cc1-n1c(=N)n(C)c2cnc3ccc(-c4ccc(C(N)=O)s4)cc3c21` [Compound 1, 5-(1-(5-cyano-2-methylphenyl)-2-imino-3-methyl-2,3-dihydro-1H-imidazo[4,5-c]quinolin-8-yl)thiophene-2-carboxamide], the half-maximal effective concentration (EC50) in data set [1] is 8.36 nM. Also, the half-life in data set [2] is greater than 30 min. The amount in solution in “Solubility pH 7.4” (solubility) came to 14.2 µg/mL (≈ 32.4 µM).

Consider `Cc1ccc(C#N)cc1-n1c(=N)n(C)c2cnc3ccc(-c4ccc(N)nc4)cc3c21` [Compound 2, 3-(8-(6-aminopyridin-3-yl)-2-imino-3-methyl-2,3-dihydro-H-imidazo[4,5-c]quinolin-1-yl)-4-methylbenzonitrile], for which, in data set [1], the half-maximal effective concentration (EC50) turned out to be 5.31 nM. Besides, the half-life in data set [2] was greater than 30 min. The molecule further showed a solubility in the data set “Solubility pH 7.4” greater than 60 µg/mL.

Take `Cc1ccc(C#N)cc1-n1c(=N)n(C)c2cnc3ccc(-c4ccc5c(c4)CC(=O)N5)cc3c21` [Compound 3, 3-(2-imino-3-methyl-8-(2-oxoindolin-5-yl)-2,3-dihydro-1H-imidazo[4,5-c]quinolin-1-yl)-4-methylbenzonitrile]: the 50% effective concentration (EC50) in data set [1] is 20.3 nM. The half-life in data set [2] was greater than 30 min. In “Solubility pH 7.4”, this molecule returned a solubility of 3.6 µg/mL (≈ 8.1 µM).

Consider `CCc1ccc(C#N)cc1-n1c(=N)n(C)c2cnc3ccc(-c4ccc(Cl)cc4)cc3c21` [Compound 7, 3-(8-(4-chlorophenyl)-2-imino-3-methyl-2,3-dihydro-1H-imidazo[4,5-c]quinolin-1-yl)-4-ethylbenzonitrile], for which the EC50 in data set [1] worked out at 360 nM. In addition, the half-life in data set [2] was greater than 30 min. The molecule further had a solubility in the data set “Solubility pH 7.4” of 3.4 µg/mL (≈ 7.76 µM).

Consider `Cn1c(=N)n(-c2cc(C#N)ccc2F)c2c3cc(-c4ccc(Cl)cc4)ccc3ncc21` [Compound 10, 3-(8-(4-chlorophenyl)-2-imino-3-methyl-2,3-dihydro-1H-imidazo[4,5-c]quinolin-1-yl)-4-fluorobenzonitrile], for which the EC50 in data set [1] stood at 24.4 nM. Moreover, in data set [2], the half-life is greater than 30 min. The molecule further had a solubility in the data set “Solubility pH 7.4” of less than 1 µg/mL.

For `Cn1cc(-n2c(=N)n(C)c3cnc4ccc(-c5ccc(Cl)cc5)cc4c32)cn1` [Compound 13, 8-(4-chlorophenyl)-3-methyl-1-(1-methyl-1H-pyrazol-4-yl)-1,3-dihydro-2H-imidazo[4,5-c]quinolin-2-imine], in data set [1], the EC50 is 477 nM. Also, the half-life in data set [2] was greater than 30 min. In the data set “Solubility pH 7.4”, the solubility was greater than 38 µg/mL.

Consider `Cc1cc(N2CCNCC2)c(C#N)cc1-n1c(=N)n(C)c2cnc3ccc(-c4ccc(Cl)cc4)cc3c21` [Compound 14, 5-(8-(4-chlorophenyl)-2-imino-3-methyl-2,3-dihydro-1H-imidazo[4,5-c]quinolin-1-yl)-4-methyl-2-(piperazin-1-yl)benzonitrile], for which the concentration for a half-maximal effect (EC50) in data set [1] was 175 nM. In addition, the half-life in data set [2] was greater than 30 min. This molecule yielded a solubility in the data set “Solubility pH 7.4” of less than 1 µg/mL.

Take `Cc1cc(N2CCN(C(=O)OC(C)(C)C)CC2)c(C#N)cc1-n1c(=N)n(C)c2cnc3ccc(-c4ccc(Cl)cc4)cc3c21` [Compound 15, tert-butyl 4-(4-(8-(4-chlorophenyl)-2-imino-3-methyl-2,3-dihydro-1H-imidazo[4,5-c]quinolin-1-yl)-2-cyano-5-methylphenyl)piperazine-1-carboxylate]: the concentration giving a half-maximal response (EC50) in data set [1] worked out at 591 nM. Further, the half-life in data set [2] is greater than 30 min. Moreover, in “Solubility pH 7.4”, the solubility was less than 1 µg/mL.

As to `Cc1ccc(S(=O)(=O)/N=c2\n(C)c3cnc4ccc(-c5ccc(Cl)cc5)cc4c3n2-c2cc(C#N)ccc2C)cc1` [Compound 16, (E)-N-(8-(4-chlorophenyl)-1-(5-cyano-2-methylphenyl)-3-methyl-1,3-dihydro-2H-imidazo[4,5-c]quinolin-2-ylidene)-4-methylbenzenesulfonamide], the half-maximal effective concentration (EC50) in data set [1] worked out at 240 nM. For the same molecule, the half-life in data set [2] was 10.4 min. Besides, the solubility in the data set “Solubility pH 7.4” is less than 1 µg/mL.

As for `CCCC/N=c1\n(C)c2cnc3ccc(-c4ccc(Cl)cc4)cc3c2n1-c1cc(C#N)ccc1C` [Compound 17, (E)-3-(2-(butylimino)-8-(4-chlorophenyl)-3-methyl-2,3-dihydro-1H-imidazo[4,5-c]quinolin-1-yl)-4-methylbenzonitrile], in data set [1], the half-maximal effective concentration (EC50) stood at 542 nM. In addition, the half-life in data set [2] is greater than 30 min. In “Solubility pH 7.4”, this molecule showed a solubility of 1.1 µg/mL (≈ 2.29 µM).
